Assay results taken from patent publication US20140364431A1, “Quinoline and cinnoline derivatives and their applications” (Shenyang Pharmaceutical University, priority 2011, published 2014).
≈ marks a conversion by molar mass, not a printed value. Structures can show the parent of a compound that is named as a salt. Where two headings read alike, the source gives them in different places.

Columns and labels:
[1] = test system: U87MG (Human malignant glioblastoma cells); test: In vitro anti-tumor cellular activity (MTT), U87MG; format: cell-based; details: Homo sapiens, U-87 MG, read-out: U87MG IC50
[2] = test system: H460 (human lung cancer cell); test: In vitro anti-tumor cellular activity (MTT), H460; format: cell-based; details: Homo sapiens, read-out: H460 IC50
[3] = test system: SMMC-7721 (hepatoma cell); test: In vitro anti-tumor cellular activity (MTT), SMMC-7721; format: cell-based, human; details: Homo sapiens, read-out: SMMC-7721 IC50
[4] = test system: HT-29 (colon cancer cell); test: In vitro anti-tumor cellular activity (MTT), HT-29; format: cell-based, human; details: Homo sapiens, read-out: HT-29 IC50
[5] = test system: MKN-45 (human gastric carcinoma cell); test: In vitro anti-tumor cellular activity (MTT), MKN-45; format: cell-based; details: Homo sapiens, read-out: MKN-45 IC50
[6] = molecular target: T1, c-Met (His-tagged recombinant human Met (Amino acids 974-ends)) (Homo sapiens, UniProt P08581); test: c-Met kinase assay (ELISA); format: biochemical; details: 50 pM c-Met, 5 μM ATP, 20 min
T1 construct: His-tagged recombinant human Met (Amino acids 974-ends); His; host or cells: baculovirus expression
T1 sequence (P08581 974-1390 limits assumed): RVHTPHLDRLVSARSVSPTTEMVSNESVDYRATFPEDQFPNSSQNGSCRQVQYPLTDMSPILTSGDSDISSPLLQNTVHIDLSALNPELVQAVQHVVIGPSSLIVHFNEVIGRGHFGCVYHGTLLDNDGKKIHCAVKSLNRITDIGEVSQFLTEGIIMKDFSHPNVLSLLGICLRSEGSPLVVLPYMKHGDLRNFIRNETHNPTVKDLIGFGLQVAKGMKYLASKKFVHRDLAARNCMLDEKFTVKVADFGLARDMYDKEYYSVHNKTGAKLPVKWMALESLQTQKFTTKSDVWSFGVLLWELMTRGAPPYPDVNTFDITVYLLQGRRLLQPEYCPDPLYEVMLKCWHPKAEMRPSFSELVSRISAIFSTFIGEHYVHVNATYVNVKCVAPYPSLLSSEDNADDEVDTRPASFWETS
Procedure: c-Met kinase activity was measured with an ELISA reader.
The reaction mixture was removed by washing with 0.2 μg/mL conjugated horseradish peroxidase (HRP) monoclonal antibody specific for phosphotyrosine (PY20) detecting phosphorylation of the substrate polymer. 1M phosphoric acid was added to terminate the color, the chromogenic substrate (TMB) was tested by spectrophotometry at 450 nm.

IC50 ([1]; MTT, 72 hours, U87MG) | IC50 ([2]; NCI-H460, MTT, 72 hours, H460) | IC50 ([3]; MTT, 72 hours, SMMC-7721) | IC50 ([4]; MTT, 72 hours, HT-29) | IC50 ([5]; MTT, 72 hours, MKN-45) | IC50 [6] | Compound | IC50 ([1]; 72 h) | IC50 ([2]; NCI-H460, 72 h) | IC50 ([3]; SMMC-7721, 72 h) | IC50 ([4]; HT-29, 72 h) | IC50 ([5]; MKN-45, 72 h)
0.7 µg/mL (≈ 0.886 µM) | 0.8 µg/mL (≈ 1.01 µM) | 1.4 µg/mL (≈ 1.77 µM) | 0.8 µg/mL (≈ 1.01 µM) | 0.6 µg/mL (≈ 0.759 µM) | 1140 nM | COc1cc2c(Oc3ccc(NC(=O)c4nn(-c5cc(C(F)(F)F)ccc5Cl)c5ccccc5c4=O)cc3F)ccnc2cc1OCCCN1CCC(C)CC1 [Example 21, N-(3-fluoro-4-((6-methoxy-7-(3-(4-methylpiperidin-1-yl)propoxy)quinolin-4-yl)oxy)phenyl)-1-(2-chloro-5-(trifluoromethyl)phenyl)-4-oxo-1,4-dihydrocinnoline-3-carboxamide] | – | – | – | – | –
1.3 µg/mL (≈ 1.64 µM) | 1 µg/mL (≈ 1.26 µM) | 1.4 µg/mL (≈ 1.77 µM) | 0.7 µg/mL (≈ 0.885 µM) | 0.9 µg/mL (≈ 1.14 µM) | 404 nM | COc1cc2c(Oc3ccc(NC(=O)c4nn(-c5cc(C(F)(F)F)ccc5Cl)c5ccccc5c4=O)cc3F)ccnc2cc1OCCCN1CCN(C)CC1 [Example 23, N-(3-fluoro-4-((6-methoxy-7-(3-(4-methylpiperazin-1-yl)propoxy)quinolin-4-yl)oxy)phenyl)-1-(2-chloro-5-(trifluoromethyl)phenyl)-4-oxo-1,4-dihydrocinnoline-3-carboxamide] | – | – | – | – | –
2.8 µg/mL (≈ 3.91 µM) | 1.1 µg/mL (≈ 1.54 µM) | 0.86 µg/mL (≈ 1.2 µM) | 1.4 µg/mL (≈ 1.96 µM) | 0.8 µg/mL (≈ 1.12 µM) | 1260 nM | COc1cc2c(Oc3ccc(NC(=O)c4nn(-c5ccc(C)cc5C)c5ccccc5c4=O)cc3F)ccnc2cc1OCCCN1CCC(C)CC1 [Example 24, N-(3-fluoro-4-((6-methoxy-7-(3-(4-methylpiperidin-1-yl)propoxy)quinolin-4-yl)oxy)phenyl)-1-(2,4-dimethylphenyl)-4-oxo-1,4-dihydrocinnoline-3-carboxamide] | – | – | – | – | –
1.8 µg/mL (≈ 2.51 µM) | 0.8 µg/mL (≈ 1.12 µM) | 1.6 µg/mL (≈ 2.23 µM) | 1.4 µg/mL (≈ 1.95 µM) | 0.7 µg/mL (≈ 0.977 µM) | 419 nM | COc1cc2c(Oc3ccc(NC(=O)c4nn(-c5ccc(C)cc5C)c5ccccc5c4=O)cc3F)ccnc2cc1OCCCN1CCN(C)CC1 [Example 26, N-(3-fluoro-4-((6-methoxy-7-(3-(4-methylpiperazin-1-yl)propoxy)quinolin-4-yl)oxy)phenyl)-1-(2,4-dimethylphenyl)-4-oxo-1,4-dihydrocimloline-3-carboxamide] | – | – | – | – | –
1.5 µg/mL (≈ 2.16 µM) | 1.1 µg/mL (≈ 1.59 µM) | 0.87 µg/mL (≈ 1.25 µM) | 0.7 µg/mL (≈ 1.01 µM) | 1.3 µg/mL (≈ 1.87 µM) | 966 nM | COc1cc2c(Oc3ccc(NC(=O)c4nn(-c5ccc(F)cc5)c5ccccc5c4=O)cc3F)ccnc2cc1OCCCN1CCOCC1 [Example 36, N-(3-fluoro-4-((6-methoxy-7-(3-(morpholin-4-yl)propoxy)quinolin-4-yl)oxy)phenyl)-1-(4-fluorophenyl)-4-oxo-1,4-dihydrocinnoline-3-carboxamide] | – | – | – | – | –
1.1 µg/mL (≈ 1.45 µM) | 1.6 µg/mL (≈ 2.11 µM) | 0.98 µg/mL (≈ 1.29 µM) | 1.8 µg/mL (≈ 2.38 µM) | 2.1 µg/mL (≈ 2.77 µM) | 1450 nM | COc1cc2c(Oc3ccc(NC(=O)c4nn(-c5ccccc5OC(F)(F)F)c5ccccc5c4=O)cc3F)ccnc2cc1OCCCN1CCCCC1 [Example 38, N-(3-fluoro-4-((6-methoxy-7-(3-(piperidin-1-yl)propoxy)quinolin-4-yl)oxy)phenyl)-1-(2-(trifluoromethoxy)phenyl)-4-oxo-1,4-dihydrocinnoline-3-carboxamide] | – | – | – | – | –
0.72 µg/mL | 0.98 µg/mL | 1.3 µg/mL | 1.5 µg/mL | 0.67 µg/mL | 1130 nM | COc1cc2c(Oc3ccc(NC(=O)c4cn(-c5ccc(F)cc5)c5ccccc5c4=O)cc3F)ccnc2cc1OCCCN1CCN(C)CC1 [Example 46, N-(3-fluoro-4-((6-methoxy-7-(3-(4-methyl-piperazin-1-yl)propoxy)quinolin-4-yl)oxy)phenyl)-4-oxo-1-(4-fluorophenyl)-1,4-dihydroquinoline-3-carboxamide dihydrochloride] | – | – | – | – | –
0.49 µg/mL (≈ 0.695 µM) | 0.54 µg/mL (≈ 0.766 µM) | 1.1 µg/mL (≈ 1.56 µM) | 0.57 µg/mL (≈ 0.809 µM) | 0.34 µg/mL (≈ 0.482 µM) | 568 nM | COc1cc2c(Oc3ccc(NC(=O)c4cn(-c5ccccc5F)c5ccccc5c4=O)cc3F)ccnc2cc1OCCCN1CCC(C)CC1 [Example 47, N-(3-fluoro-4-((6-methoxy-7-(3-(4-methylpiperidin-1-yl)propoxy)quinolin-4-yl)oxy)phenyl)-1-(2-fluorophenyl)-4-oxo-1,4-dihydroquinoline-3-carboxamide] | – | – | – | – | –
0.88 µg/mL | 0.7 µg/mL | 0.56 µg/mL | 0.65 µg/mL | 1.1 µg/mL | 1350 nM | COc1cc2c(Oc3ccc(NC(=O)c4cn(-c5ccccc5C(F)(F)F)c5ccccc5c4=O)cc3F)ccnc2cc1OCCCN1CCOCC1.Cl.Cl [Example 48, N-(3-fluoro-4-((6-methoxy-7-(3-(morpholin-4-yl)propoxy)quinolin-4-yl)oxy)phenyl)-4-oxo-1-(2-(trifluoromethyl)phenyl)-1,4-dihydroquinoline-3-carboxamide dihydrochloride] | – | – | – | – | –
0.35 µg/mL (≈ 0.507 µM) | 0.58 µg/mL (≈ 0.84 µM) | 0.87 µg/mL (≈ 1.26 µM) | 0.38 µg/mL (≈ 0.55 µM) | 0.45 µg/mL (≈ 0.651 µM) | 869 nM | COc1cc2c(Oc3ccc(NC(=O)c4cn(-c5ccccc5F)c5ccccc5c4=O)cc3F)ccnc2cc1OCCCN1CCCCC1 [Example 50, N-(3-fluoro-4-((6-methoxy-7-(3-(piperidin-1-yl)propoxy)quinolin-4-yl)oxy)phenyl)-1-(2-fluorophenyl)-4-oxo-1,4-dihydroquinoline-3-carboxamide] | – | – | – | – | –
0.28 µg/mL (≈ 0.414 µM) | 0.58 µg/mL (≈ 0.857 µM) | 0.53 µg/mL (≈ 0.783 µM) | 0.41 µg/mL (≈ 0.606 µM) | 0.24 µg/mL (≈ 0.355 µM) | 296 nM | COc1cc2c(Oc3ccc(NC(=O)c4cn(-c5ccccc5F)c5ccccc5c4=O)cc3F)ccnc2cc1OCCCN1CCCC1 [Example 51, N-(3-fluoro-4-((6-methoxy-7-(3-(pyrrolidin-1-yl)propoxy)quinolin-4-yl)oxy)phenyl)-1-(2-fluorophenyl)-4-oxo-1,4-dihydroquinoline-3-carboxamide] | – | – | – | – | –
0.87 µg/mL (≈ 1.23 µM) | 1.4 µg/mL (≈ 1.98 µM) | 1.8 µg/mL (≈ 2.55 µM) | 1.1 µg/mL (≈ 1.56 µM) | 0.67 µg/mL (≈ 0.949 µM) | 2270 nM | COc1cc2c(Oc3ccc(NC(=O)c4cn(-c5ccccc5F)c5ccccc5c4=O)cc3F)ccnc2cc1OCCCN1CCN(C)CC1 [Example 52, N-(3-fluoro-4-((6-methoxy-7-(3-(4-methylpiperazin-1-yl)propoxy)quinolin-4-yl)oxy)phenyl)-1-(2-fluorophenyl)-4-oxo-1,4-dihydroquinoline-3-carboxamide] | – | – | – | – | –

Compound | IC50 ([1]; MTT, 72 hours, U87MG) | IC50 ([2]; NCI-H460, MTT, 72 hours, H460) | IC50 ([3]; MTT, 72 hours, SMMC-7721) | IC50 ([4]; MTT, 72 hours, HT-29) | IC50 ([5]; MTT, 72 hours, MKN-45) | IC50 [6] | IC50 ([1]; 72 h) | IC50 ([2]; NCI-H460, 72 h) | IC50 ([3]; SMMC-7721, 72 h) | IC50 ([4]; HT-29, 72 h) | IC50 ([5]; MKN-45, 72 h)
COc1cc2c(Oc3ccc(NC(=O)c4nn(-c5ccc(Cl)cc5Cl)c5ccccc5c4=O)cc3F)ccnc2cc1OCCCN1CCC(C)CC1 [Example 28, N-(3-fluoro-4-((6-methoxy-7-(3-(4-methylpiperidin-1-yl)propoxy)quinolin-4-yl)oxy)phenyl)-1-(2,4-dichlorophenyl)-4-oxo-1,4-dihydrocinnoline-3-carboxamide] | – | – | – | – | – | 1720 nM | 1.6 µg/mL (≈ 2.11 µM) | 2.3 µg/mL (≈ 3.04 µM) | 1.3 µg/mL (≈ 1.72 µM) | 0.9 µg/mL (≈ 1.19 µM) | 1.8 µg/mL (≈ 2.38 µM)
COc1cc2c(Oc3ccc(NC(=O)c4nn(-c5c(Cl)cccc5Cl)c5ccccc5c4=O)cc3F)ccnc2cc1OCCCN1CCN(C)CC1 [Example 32, N-(3-fluoro-4-((6-methoxy-7-(3-(4-methylpiperazin-1-yl)propoxy)quinolin-4-yl)oxy)phenyl)-1-(2,6-dichlorophenyl)-4-oxo-1,4-dihydrocinnoline-3-carboxamide] | – | – | – | – | – | 132 nM | 0.65 µg/mL (≈ 0.858 µM) | 0.7 µg/mL (≈ 0.924 µM) | 0.66 µg/mL (≈ 0.871 µM) | 0.77 µg/mL (≈ 1.02 µM) | 1.2 µg/mL (≈ 1.58 µM)
COc1cc2c(Oc3ccc(NC(=O)c4nn(-c5ccccc5Br)c5ccccc5c4=O)cc3F)ccnc2cc1OCCCN1CCN(C)CC1 [Example 35, N-(3-fluoro-4-((6-methoxy-7-(3-(4-methylpiperazin-1-yl)propoxy)quinolin-4-yl)oxy)phenyl)-1-(2-bromophenyl)-4-oxo-1,4-dihydrocinnoline-3-carboxamide] | – | – | – | – | – | 1430 nM | 1.3 µg/mL (≈ 1.69 µM) | 2.5 µg/mL (≈ 3.26 µM) | 1.5 µg/mL (≈ 1.95 µM) | 0.9 µg/mL (≈ 1.17 µM) | 2.1 µg/mL (≈ 2.74 µM)
COc1cc2c(Oc3ccc(NC(=O)c4nn(-c5ccc(Br)cc5)c5ccccc5c4=O)cc3F)ccnc2cc1OCCCN1CCOCC1 [Example 39, N-(3-fluoro-4-((6-methoxy-7-(3-(morpholin-4-yl)propoxy)quinolin-4-yl)oxy)phenyl)-1-(4-bromophenyl)-4-oxo-1,4-dihydrocinnoline-3-carboxamide] | – | – | – | – | – | 1330 nM | 1.8 µg/mL (≈ 2.39 µM) | 2.3 µg/mL (≈ 3.05 µM) | 2.1 µg/mL (≈ 2.78 µM) | 0.87 µg/mL (≈ 1.15 µM) | 1.4 µg/mL (≈ 1.86 µM)
COc1cc2c(Oc3ccc(NC(=O)c4nn(-c5ccc(Cl)cc5Cl)c5ccccc5c4=O)cc3F)ccnc2cc1OCCCN1CCN(C)CC1 [Example 43, N-(3-fluoro-4-((6-methoxy-7-(3-(4-methylpiperazin-1-yl)propoxy)quinolin-4-yl)oxy)phenyl)-1-(2,4-dichlorophenyl)-4-oxo-1,4-dihydrocinnoline-3-carboxamide] | – | – | – | – | – | 924 nM | 0.77 µg/mL (≈ 1.02 µM) | 0.53 µg/mL (≈ 0.7 µM) | 1.8 µg/mL (≈ 2.38 µM) | 1.2 µg/mL (≈ 1.58 µM) | 0.45 µg/mL (≈ 0.594 µM)
